# Test results from patent publication US10239851B2 (priority 2014, dated 2019).
# Read-outs that look alike come from different tables or passages of the source. Marks after values point to notes of the source that are not given here.
# Key:
# KM mice = assay: ED50 and LD50 test concerning anesthesia (sequential method) in mice; type: in vivo; conditions: for Mouse ED50: anesthesia (loss of righting reflex); for Mouse ED50 / Mouse LD50: caudal vein injection
# Protocol: (§1) Test samples for the experiment on rabbit were formulated to have corresponding concentrations based on the results from a preliminary test. […] Rats and mice were administered with samples having a fixed concentration of drugs, while the volume of administration altered according to actual situation. The volume of administration to rabbits was 1 mL/kg body weight.
# (§2) ED50 and LD50 values concerning anesthesia were determined using a sequential method. Healthy KM mice (male), SD rats (male) and New Zealand White rabbits were used for test. […] For rabbits, the compounds were administered by injection at a constant rate via ear vein for 30 seconds. Before the test, a preliminary test was conducted to determine an approximate dosage (volume of administration) that leads to anesthetization (or death) of animals, which was set as the middle dosage in the formal test. […] The disappearance of righting reflex or death was used as indicators of pharmacological efficacy or toxicity, respectively. The formal test began with the administration of the middle dosage. If animals were anesthetized, a lower dosage was administered; if animals were not anesthetized, a higher dosage was administered, until the cycle was repeated for 3-4 times. LD50 and ED50 were calculated by a sequential method aot425 software. TI was calculated according to the following equation: TI=LD50/ED50.
# [1] = rabbit plasma, 37° C.
# Kunming mice = assay: Latent period and persistent period of anesthesia in mice; type: in vivo; conditions: intravenous injection
# [2] = rat plasma, 37° C.
# Protocol: 0.1 ml samples were taken from each of the solutions, added respectively to 1 ml of blood plasma of rabbit (taken from New Zealand white rabbits, treated according to conventional methods, anticoagulated with heparin) or 1 ml of blood plasma of rat (taken from live SD rats, treated according to conventional methods, anticoagulated with heparin), homogeneously mixed, and placed in a thermostatic water bath at 37° C. for incubation with time being recorded. Samples were taken at different time points after the experiment began, and 2 ml of acetonitrile was immediately added. The samples were shaken and centrifuged for 5 min (15,000 rpm), and the supernatant was then taken for HPLC analysis.
# [3] = test system: New Zealand White rabbits; assay: ED50 and LD50 test concerning anesthesia (sequential method) in rabbits; type: in vivo; conditions: for TI index: TI=LD50/ED50; for LD50 / ED50: injection via ear vein; for LD50: death; for ED50: disappearance of righting reflex
# Protocol: as §1, §2
# SD rats = assay: ED50 and LD50 test concerning anesthesia (sequential method) in rats; type: in vivo; conditions: for Rat ED50: anesthesia (loss of righting reflex); for Rat ED50 / Rat LD50: caudal vein injection
# Protocol: as §1, §2
# [4] = 3 mg/ml solution, confirmation test
# [5] = 6 mg/ml solution, confirmation test
# [6] = formula F derivatives, sampling time 15 s
# [7] = formula F derivatives, sampling time 30 s
# [8] = dosage 2 * ED50, 3 mg/ml solution
# [9] = dosage 2 * ED50, 6 mg/ml solution
SMILES,TI Mouse (KM mice; [4]),"TI Mouse (KM mice; 3 mg/ml solution, first test)",TI Mouse (KM mice; [5]),"TI Mouse (KM mice; 6 mg/ml solution, first test)",Mouse ED50 (KM mice; [4]) [mg/kg],"Mouse ED50 (KM mice; 3 mg/ml solution, first test) [mg/kg]",Mouse ED50 (KM mice; [5]) [mg/kg],"Mouse ED50 (KM mice; 6 mg/ml solution, first test) [mg/kg]",Mouse LD50 (KM mice; [4]) [mg/kg],"Mouse LD50 (KM mice; 3 mg/ml solution, first test) [mg/kg]",Mouse LD50 (KM mice; [5]) [mg/kg],"Mouse LD50 (KM mice; 6 mg/ml solution, first test) [mg/kg]",Latent Period (Kunming mice; [8]) [s],Persistent period (Kunming mice; [8]) [s],Latent Period (Kunming mice; [9]) [s],Persistent period (Kunming mice; [9]) [s],TI index [3],LD50 [3],ED50 [3],TI Rat (SD rats; 3 mg/ml solution),other results
"CC(C)c1cccc(C(C)C)c1OC(=O)C(F)CCC(=O)[O-].[Na+] (racemic) [Compound F1, propofol 4-carboxyl-2(R,S)-fluorovalerate sodium salt]",2.8,3*,3.3,2.7*,18.6,20.8,16.7,18.2,52.3,63.4,55.4,49.7,18.6 ± 0.7,349.7 ± 229.4,15.2 ± 1.4,523 ± 248,2.8,34.4 (32.1-36.5) mg/kg,12.2 (10.6-14.6) mg/kg,3.0,"Sampling time/dissociation percent (%) 15 s [1, 6]: 47.5%; Sampling time/dissociation percent (%) 30 s [1, 7]: 75.5%; Sampling time/dissociation percent (%) 5 s ([2]; formula F derivatives, sampling time 5 s): 64.1%; Sampling time/dissociation percent (%) 15 s [2, 6]: 70.2%; Sampling time/dissociation percent (%) 30 s [2, 7]: 86.7%; TI Rat (SD rats; 6 mg/ml solution): 3.7; Rat ED50 (SD rats; 3 mg/ml solution): 14.6 mg/kg; Rat ED50 (SD rats; 6 mg/ml solution): 11.3 mg/kg; Rat LD50 (SD rats; 3 mg/ml solution): 44.1 mg/kg; Rat LD50 (SD rats; 6 mg/ml solution): 42.3 mg/kg"
"CC(C)c1cccc(C(C)C)c1OC(=O)[C@H](F)CCN(C)C.Cl [Compound E2, Propofol 4-(N,N-dimethyl)amino-2(R)-fluorobutyrate Hydrochloride]",3^,4*,3.7,3.6*,15.4,17.9,13.0,15.2,46.9,71.8,48.0,55.1,14.6 ± 0.9,383.6 ± 242.1,14.2 ± 1.9,543 ± 231,3.5,28 (23.0-34.2) mg/kg,8 (5.7-10.5) mg/kg,3.8,dissociation percent ([1]; 15 s): 97.7%; dissociation percent ([1]; 30 s): 100%; dissociation percent ([2]; 5 s): 100%; TI Rat (SD rats; 6 mg/ml solution): 3.1; Rat ED50 (SD rats; 3 mg/ml solution): 9.8 mg/kg; Rat ED50 (SD rats; 6 mg/ml solution): 10.1 mg/kg; Rat LD50 (SD rats; 3 mg/ml solution): 37.5 mg/kg; Rat LD50 (SD rats; 6 mg/ml solution): 30.7 mg/kg
